# Results as given in PMC6881293, “Nanomolar-potency ‘co-potentiator’ therapy for cystic fibrosis caused by a defined subset of minimal function CFTR mutants” (Scientific Reports, 2019).
# Experiments:
# [1] = molecular target: T1, Q1313X-CFTR (Homo sapiens, UniProt P13569); experiment: Short-circuit current in FRT cells expressing Q1313X-CFTR; format: cell-based
# T1 construct: expressed in transfected cells
# Experimental: As shown in Fig. 1C and summarized in Fig. 2, ASP-11 acted in synergy with VX-770 to increase chloride current in FRT cells expressing the NBD2 mutations I1234del- and Q1313X-CFTR by ~3–9-fold compared to VX-770. I1234del- and Q1313X-CFTR-expressing cells were also treated with VX-809 for 24 hours (to consider the effect of available CFTR therapeutics) with 2–3-fold greater currents observed.
# Studies on FRT cells expressing Q1313X-CFTR produced similar data (Fig. 3C).
# (§1) Figures 5C,D show data in N1303K- and Q1313X-expressing FRT cells.
# (§2) Short-circuit current was measured on cells cultured on Snapwell clear permeable supports (Corning) as described[10],[11]. Hemichambers were connected to a DVC-1000 voltage clamp (World Precision Instruments Inc., Sarasota, FL) via Ag/AgCl electrodes and 3 M KCl agar bridges for recording of the short-circuit current. For human airway epithelial cells, symmetrical HCO3^−-buffered solutions (in mM: 120 NaCl, 5 KCl, 1 MgCl2, 1 CaCl2, 5 Hepes, 25 NaHCO3, 10 glucose, pH 7.4) for basolateral and apical side were used. For FRT cells, the basolateral membrane was permeabilized with 250 μg/ml amphotericin B, and experiments were done with a chloride gradient using a HCO3^−-buffered solutions (Basolateral (mM): 120 NaCl, 5 KCl, 1 MgCl2, 1 CaCl2, 5 Hepes, 25 NaHCO3, 10 glucose, pH 7.4; apical (mM): 60 NaCl, 60 mM sodium gluconate, 5 KCl, 1 MgCl2, 1 CaCl2, 5 Hepes, 25 NaHCO3, 10 glucose, pH 7.4). All cells were equilibrated with 95% O2, 5% CO2 and maintained at 37 °C during experiments.
# [2] = molecular target: T2, N1303K-CFTR (Homo sapiens, UniProt P13569, N1303K); experiment: Short-circuit current in FRT cells expressing N1303K-CFTR; format: cell-based
# T2 construct: expressed in transfected cells
# T2 sequence (P13569 whole entry N1303K): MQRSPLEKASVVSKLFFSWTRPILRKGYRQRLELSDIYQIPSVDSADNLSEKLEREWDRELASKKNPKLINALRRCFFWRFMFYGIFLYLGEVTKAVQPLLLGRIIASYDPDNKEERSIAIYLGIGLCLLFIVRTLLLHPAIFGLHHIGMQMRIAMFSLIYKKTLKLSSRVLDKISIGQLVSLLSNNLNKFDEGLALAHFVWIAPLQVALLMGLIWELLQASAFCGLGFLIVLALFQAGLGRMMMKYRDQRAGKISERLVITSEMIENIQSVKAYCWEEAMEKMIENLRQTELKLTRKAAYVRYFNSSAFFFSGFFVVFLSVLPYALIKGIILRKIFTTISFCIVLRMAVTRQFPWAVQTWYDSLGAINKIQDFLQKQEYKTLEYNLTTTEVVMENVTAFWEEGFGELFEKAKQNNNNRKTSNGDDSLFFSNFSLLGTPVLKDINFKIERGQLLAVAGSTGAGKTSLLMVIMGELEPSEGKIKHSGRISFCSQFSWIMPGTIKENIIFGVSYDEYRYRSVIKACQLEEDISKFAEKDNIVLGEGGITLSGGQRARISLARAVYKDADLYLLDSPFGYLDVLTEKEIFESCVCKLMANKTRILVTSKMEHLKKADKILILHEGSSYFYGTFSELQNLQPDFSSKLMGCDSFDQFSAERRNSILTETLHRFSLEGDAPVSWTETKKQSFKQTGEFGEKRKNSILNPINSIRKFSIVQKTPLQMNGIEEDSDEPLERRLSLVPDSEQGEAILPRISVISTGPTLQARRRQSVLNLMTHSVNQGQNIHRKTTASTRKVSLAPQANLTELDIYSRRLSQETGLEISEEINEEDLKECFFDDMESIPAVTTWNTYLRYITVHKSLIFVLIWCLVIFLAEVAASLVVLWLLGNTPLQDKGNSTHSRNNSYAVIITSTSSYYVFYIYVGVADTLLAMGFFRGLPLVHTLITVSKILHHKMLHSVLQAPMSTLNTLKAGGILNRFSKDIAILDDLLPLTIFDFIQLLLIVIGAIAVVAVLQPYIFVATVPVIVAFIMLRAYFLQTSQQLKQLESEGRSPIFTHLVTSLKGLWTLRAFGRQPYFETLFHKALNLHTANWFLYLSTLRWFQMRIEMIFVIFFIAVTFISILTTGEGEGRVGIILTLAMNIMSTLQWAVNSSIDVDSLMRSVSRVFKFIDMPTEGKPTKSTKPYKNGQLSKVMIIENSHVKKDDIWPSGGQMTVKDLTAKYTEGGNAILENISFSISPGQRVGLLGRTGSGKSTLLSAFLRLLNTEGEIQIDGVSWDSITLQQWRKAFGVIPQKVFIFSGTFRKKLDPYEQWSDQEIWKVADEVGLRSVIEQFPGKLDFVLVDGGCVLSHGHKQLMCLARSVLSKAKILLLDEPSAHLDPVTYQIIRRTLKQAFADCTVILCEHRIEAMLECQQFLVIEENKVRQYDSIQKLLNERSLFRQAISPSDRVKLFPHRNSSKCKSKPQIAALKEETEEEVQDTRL
# Experimental: Based on prior studies[10],[11],[20], we hypothesized that distinct binding sites may be required to bind a potentiator and co-potentiator to rescue channel activity of CFTR mutants. We defined the potentiator VX-770 as a Class I compound, and co-potentiator ASP-11 as a Class II compound (Fig. 3A,D). Short-circuit current measurements in N1303K-CFTR-expressing FRT cells confirmed synergy when ASP-11 was added after VX-770 (Fig. 3Bi). […] In each experiment, CFTRinh-172 confirmed that current was from CFTR.
# Figure 3 Definition of Class I and II CFTR potentiators. (A) Chemical structures of Class I and II potentiators. (B) Short-circuit current in FRT cells expressing N1303K-CFTR in response to forskolin and indicated potentiators. Concentrations: 20 μM forskolin, 5 μM VX-770, 20 μM ASP-11, 20 μM GLPG1837, 20 μM P2, 20 μM P3, 20 μM P5, 20 μM W1282Xpot-C01, and 10 μM CFTRinh-172. C. Short-circuit current in FRT cells expressing Q1313X-CFTR in response to forskolin and indicated potentiators. Concentrations: as in panel B, and 25 μM apigenin. (D) Summary of relative N1303K-CFTR activation in response to combinations of Class I and Class II potentiators. Mean ± S.E.M., n = 3. TEXT PRINTED IN THE PICTURE: (D) VX-770: N1303K-CFTR: P5: 1% ±1%; N1303K-CFTR: GLPG 1837: 10% ±5%; N1303K-CFTR: ASP-11: 100% ±3%; N1303K-CFTR: apigenin: 100% ±5% | (D) P5: N1303K-CFTR: VX-770: 1% ±1%; N1303K-CFTR: GLPG 1837: 2% ±2%; N1303K-CFTR: ASP-11: 52% ±5%; N1303K-CFTR: apigenin: 56% ±5% | (D) GLPG 1837: N1303K-CFTR: VX-770: 0% ±5%; N1303K-CFTR: P5: 2% ±2%; N1303K-CFTR: ASP-11: 100% ±4%; N1303K-CFTR: apigenin: 98% ±5% | (D) ASP-11: N1303K-CFTR: VX-770: 100% ±3%; N1303K-CFTR: P5: 47% ±4%; N1303K-CFTR: GLPG 1837: 100% ±5%; N1303K-CFTR: apigenin: 7% ±3% | (D) apigenin: N1303K-CFTR: VX-770: 100% ±5%; N1303K-CFTR: P5: 50% ±5%; N1303K-CFTR: GLPG 1837: 100% ±5%; N1303K-CFTR: ASP-11: 5% ±2% DOUBTS OF THE COPYIST ABOUT THIS PICTURE: Panel D is a matrix of pairs of substances (row substance combined with column substance). The picture prints no name for the measure, only % values and a 0%–100% colour scale. / The print in panel D is small, so 3, 5, 6 and 8 are hard to tell apart in these values. / VX-770 / GLPG 1837: ±5% could be ±3% / VX-770 / ASP-11: ±3% could be ±5% / VX-770 / apigenin: ±5% could be ±3% / P5 / ASP-11: 52% ±5%, digits uncertain / P5 / apigenin: 56% could be 58%, and ±5% is uncertain / GLPG 1837 / VX-770: 0% ±5%, error digit uncertain / GLPG 1837 / apigenin: 98% could be 96%, and ±5% is uncertain / ASP-11 / VX-770: ±3% could be ±5% / ASP-11 / GLPG 1837: ±5% could be ±3% / ASP-11 / apigenin: 7% ±3%, error digit uncertain / apigenin / VX-770: ±5% could be ±3% / apigenin / P5: 50% ±5%, digits uncertain / apigenin / GLPG 1837: ±5% could be ±3% / apigenin / ASP-11: 5% ±2%, the 5 is uncertain
# as §1, §2
# T1 sequence (P13569 1-1312 limits assumed): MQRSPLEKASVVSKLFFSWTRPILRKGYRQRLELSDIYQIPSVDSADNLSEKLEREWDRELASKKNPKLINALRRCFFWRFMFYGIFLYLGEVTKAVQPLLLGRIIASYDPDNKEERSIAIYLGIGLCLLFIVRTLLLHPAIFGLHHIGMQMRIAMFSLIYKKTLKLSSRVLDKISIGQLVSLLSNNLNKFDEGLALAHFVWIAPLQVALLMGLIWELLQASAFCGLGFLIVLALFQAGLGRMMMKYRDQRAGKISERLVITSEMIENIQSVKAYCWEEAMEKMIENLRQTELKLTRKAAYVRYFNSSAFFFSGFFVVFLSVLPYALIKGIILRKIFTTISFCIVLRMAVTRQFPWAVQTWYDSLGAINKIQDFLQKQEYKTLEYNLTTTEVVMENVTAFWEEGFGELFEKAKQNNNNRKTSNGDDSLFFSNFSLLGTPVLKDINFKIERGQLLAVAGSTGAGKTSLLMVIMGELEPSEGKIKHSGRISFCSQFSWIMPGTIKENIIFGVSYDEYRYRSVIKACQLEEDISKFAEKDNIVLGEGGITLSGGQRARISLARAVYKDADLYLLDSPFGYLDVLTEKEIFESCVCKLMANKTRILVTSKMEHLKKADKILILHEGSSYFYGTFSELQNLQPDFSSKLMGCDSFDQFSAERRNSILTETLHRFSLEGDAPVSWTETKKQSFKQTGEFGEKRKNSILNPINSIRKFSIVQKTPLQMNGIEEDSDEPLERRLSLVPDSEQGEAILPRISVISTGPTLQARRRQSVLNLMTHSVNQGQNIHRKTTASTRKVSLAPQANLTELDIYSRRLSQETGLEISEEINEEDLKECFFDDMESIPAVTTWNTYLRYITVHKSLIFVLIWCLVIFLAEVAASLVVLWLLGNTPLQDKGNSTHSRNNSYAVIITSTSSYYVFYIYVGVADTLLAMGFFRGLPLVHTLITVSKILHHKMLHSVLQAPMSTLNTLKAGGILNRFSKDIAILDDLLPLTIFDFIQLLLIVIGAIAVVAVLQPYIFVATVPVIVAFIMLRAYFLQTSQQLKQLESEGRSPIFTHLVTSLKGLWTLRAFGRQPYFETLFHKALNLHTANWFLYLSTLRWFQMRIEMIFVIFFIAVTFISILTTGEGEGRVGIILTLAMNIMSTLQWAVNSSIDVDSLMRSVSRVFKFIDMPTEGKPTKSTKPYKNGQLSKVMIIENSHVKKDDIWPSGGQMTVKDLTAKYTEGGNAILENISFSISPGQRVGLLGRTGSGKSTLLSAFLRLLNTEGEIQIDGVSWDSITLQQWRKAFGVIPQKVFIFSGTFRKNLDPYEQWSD
smiles,measurement,setting,value
CCCCn1cc(S(=O)(=O)Nc2ccc(CC)cc2)c2cccnc21 [ASP-11],increase in chloride current with ASP-11 plus VX-770 compared to VX-770 alone,"[1]; Q1313X-CFTR FRT cells, 20 µM forskolin, 5 µM VX-770, 20 µM ASP-11, range stated jointly for I1234del- and Q1313X-CFTR",3–9 fold
same,activation by two Class II potentiators added together,"[2]; N1303K-CFTR FRT cells, 20 μM W1282Xpot-C01 and 20 μM ASP-11, no Class I potentiator",little activation
same,short-circuit current response when added after VX-770,"[2]; N1303K-CFTR FRT cells, 20 μM forskolin, 5 μM VX-770, then 20 μM compound",synergy
COc1ccc2[nH]c3c(c2c1)CCNC31CCN(Cc2ccc(F)cc2F)CC1 [Compound A061],EC50,"[1]; FRT cells expressing Q1313X-CFTR, after 20 µM forskolin and 5 µM VX-770",5 µM
same,EC50,"[2]; FRT cells expressing N1303K-CFTR, after 20 µM forskolin and 5 µM VX-770",2.9 µM
"CC(C)(C)c1cc(C(C)(C)C)c(NC(=O)c2c[nH]c3ccccc3c2=O)cc1O [VX-770, ivacaftor]",short-circuit current response when added after GLPG1837,"[1]; Q1313X-CFTR FRT cells, 20 μM forskolin, 20 μM GLPG1837",reduced current
same,short-circuit current response when added after GLPG1837,"[2]; N1303K-CFTR FRT cells, 20 μM forskolin, 20 μM GLPG1837",mildly reduced current
